Results reported in patent US20070037752A1, “Novel alanyl-amino peptidase inhibitors for functionally influencing different cells and treating immunological, inflammatory, neuronal, and other diseases” (priority 2003, published 2007).

Molecular target: alanyl aminopeptidases (APN) (Homo sapiens, UniProt P15144)
Experiment: Inhibition of alanyl aminopeptidase enzymatic activity, fluorogenic substrate (Ala)2-rhodamine 110
Type: biochemical
Conditions: Table 9, starred values = ID50; read-out: ID50 APN (values marked with *)
Protocol: The inhibition characteristics measured are referred to as IC-50 values or ID50 values (the latter marked with “*”) for said enzyme. The enzymatic activity was determined by means of the fluorogenic substrate/product (Ala)2-rhodamine 110.

alanyl aminopeptidases (APN), sequence (P15144 whole entry, species assumed): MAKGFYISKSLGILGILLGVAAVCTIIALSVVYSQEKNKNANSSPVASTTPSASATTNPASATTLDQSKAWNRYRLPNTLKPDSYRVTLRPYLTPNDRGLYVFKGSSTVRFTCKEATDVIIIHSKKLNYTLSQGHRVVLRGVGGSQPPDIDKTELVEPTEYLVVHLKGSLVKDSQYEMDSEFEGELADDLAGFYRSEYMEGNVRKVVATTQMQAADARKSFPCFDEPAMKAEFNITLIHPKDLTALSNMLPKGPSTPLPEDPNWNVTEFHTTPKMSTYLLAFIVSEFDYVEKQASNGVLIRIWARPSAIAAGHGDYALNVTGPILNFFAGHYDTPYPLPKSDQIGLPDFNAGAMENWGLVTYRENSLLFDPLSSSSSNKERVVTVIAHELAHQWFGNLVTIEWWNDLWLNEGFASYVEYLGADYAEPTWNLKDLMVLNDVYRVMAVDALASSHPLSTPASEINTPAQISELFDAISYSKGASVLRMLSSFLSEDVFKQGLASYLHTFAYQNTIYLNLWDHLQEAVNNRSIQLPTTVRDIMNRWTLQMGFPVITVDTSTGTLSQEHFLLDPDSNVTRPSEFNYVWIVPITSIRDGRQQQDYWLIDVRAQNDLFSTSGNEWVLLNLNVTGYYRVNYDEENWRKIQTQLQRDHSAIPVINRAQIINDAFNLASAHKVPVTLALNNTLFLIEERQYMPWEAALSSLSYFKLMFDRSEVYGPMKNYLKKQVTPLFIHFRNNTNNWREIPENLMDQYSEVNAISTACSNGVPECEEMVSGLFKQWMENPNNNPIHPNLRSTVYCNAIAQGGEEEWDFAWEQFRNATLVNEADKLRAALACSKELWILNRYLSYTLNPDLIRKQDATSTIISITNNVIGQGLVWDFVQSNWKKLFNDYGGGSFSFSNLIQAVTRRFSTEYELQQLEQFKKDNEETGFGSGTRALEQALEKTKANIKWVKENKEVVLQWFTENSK

IC50 | SMILES
10.2 µM | CCCCOC(=O)c1cccc(-c2ccc(/C=C3\C(=O)N(CCO)C(=O)C(C#N)=C3C)o2)c1 [A9.021]
53.2 µM | Cc1ccc(Cn2c(SCCC(=O)O)nc3c2c(=O)[nH]c(=O)n3C)cc1 [A9.100]
55 µM | Cc1ccc(/C=C(\NC(=O)c2ccccc2)C(=O)NCCN2CCOCC2)o1 [A9.103]
65.1 µM | O=c1cc(CSc2nnc(-c3ccco3)c(-c3ccco3)n2)c2ccccc2[nH]1 [A9.107]
79.8 µM | Cn1c(=O)c2c(ncn2CC(=O)N/N=C/C=C\c2ccco2)n(C)c1=O [A9.113]

Same assay, conditions: Table 9, unstarred values; read-out: IC50APN

SMILES | IC50
CC1=C(C#N)C(=O)N(CC(C)O)C(=O)/C1=C/c1ccc(-c2cccc(Cl)c2C)o1 (stereo not shown) [A9.072] | 28.6 µM
Cc1ccc(C(=O)N/C(=C\c2ccco2)C(=O)N2CCOCC2)cc1C [A9.073] | 28.8 µM
CCCCCCCSc1nnc2c(n1)OC(C(=O)c1ccccc1)=Nc1ccccc1-2 [A9.074] | 28.9 µM
O=C(C1c2ccccc2Oc2ccccc21)n1cc(Cl)cn1 [A9.075] | 29.1 µM
C=CCN1C(=O)C(C#N)=C(C)/C(=C\c2ccc(-c3cc(C)c(C)cc3[N+](=O)[O-])o2)C1=O [A9.076] | 29.3 µM
O=c1[nH]cc([N+](=O)[O-])cc1C(F)(F)F [A9.077] | 29.9 µM
CCOC(=O)C(C#N)c1c([N+](=O)[O-])c(=O)n(-c2ccccc2)c2ccccc12 (stereo not shown) [A9.078] | 30 µM
O=C(N/N=C\c1ccco1)c1cnccn1 [A9.079] | 30.1 µM
CC1=C(C#N)C(=O)N=C(O)/C1=C\c1ccc(-c2ccc(Cl)cc2Cl)o1 [A9.080] | 30.3 µM
NC(=O)C1CCN(C(=O)/C(=C/c2ccco2)NC(=O)c2ccccc2)CC1 [A9.081] | 30.5 µM
CCc1c(C)nc2c(OC)cccc2c1SCC(=O)O [A9.082] | 31.1 µM
CCCOC(=O)c1cc(-c2ccc(/C=C3/C(=O)N(CC(C)O)C(=O)C(C#N)=C3C)o2)ccc1Cl (stereo not shown) [A9.083] | 32 µM
Nc1nc2nc(-c3ccco3)cc(C(F)(F)F)n2n1 [A9.084] | 32.1 µM
CC1=C(C#N)C(O)=NC(=O)/C1=C/c1ccc(-c2ccc(Cl)cc2Cl)o1 [A9.085] | 32.4 µM
CCOc1cccc(/C=N/NC(=O)C2=C(C)Nc3ccccc3S2)c1O [A9.086] | 33.2 µM
Cc1ccccc1NC(=O)C1C(c2cccs2)C(C#N)=C(SCC(=O)Nc2ccc(Br)cc2)NC1(C)O (stereo not shown) [A9.087] | 33.9 µM
CCOC(=O)C1=C(N)NC2=C(CCCC2)C12C(=O)Nc1ccccc12 (stereo not shown) [A9.088] | 33.6 µM
CCOC(=O)C1CCN(C(=O)/C(=C/c2ccco2)NC(=O)c2ccc(C)c(C)c2)CC1 [A9.089] | 34.5 µM
O=[N+]([O-])c1ncn(CN2CCOCC2)n1 [A9.090] | 36.8 µM

SMILES | IC50
CCCOC(=O)c1cc(-c2ccc(/C=C3\C(=O)NC(=O)C(C#N)=C3C)o2)ccc1Cl [A9.091] | 36.8 µM
CC1CCN(S(=O)(=O)c2ccc3c(c2)C(Cl)(Cl)C(=O)N3)CC1 [A9.092] | 37.2 µM
CCOC(=O)c1cc(-c2ccc(/C=C3\C(=O)N(CCCO)C(=O)C(C#N)=C3C)o2)ccc1Cl [A9.094] | 41 µM
COc1cc(C)[n+](OC(=O)N(C)C)c(C)c1 [A9.095] | 42.4 µM
CC1CCN(C(=O)/C(=C\c2ccco2)NC(=O)c2ccccc2)CC1 [A9.096] | 45 µM
CSCCC(Nc1ncnc2c1oc1ccccc12)C(=O)O (stereo not shown) [A9.097] | 48.4 µM
CCOC(=O)c1cc(Br)ccc1-c1ccc(/C=C2\C(=O)N=C(O)C(C#N)=C2C)o1 [A9.098] | 49.9 µM
CCOC(=O)c1cc(-c2ccc(/C=C3/C(=O)NC(=O)C(C#N)=C3C)o2)ccc1Cl [A9.099] | 52.1 µM
CCCOC(=O)c1cc(-c2ccc(/C=C3\C(=O)N(CCO)C(=O)C(C#N)=C3C)o2)ccc1Cl [A9.101] | 54 µM
Cc1ccccc1C(=O)N1CCC(C(=O)Nc2ccc(OCc3ccccc3)cc2)CC1 [A9.102] | 54 µM
O=C(CNS(=O)(=O)c1ccc2c(c1)OCCO2)N/N=C/c1ccco1 [A9.104] | 55.6 µM
CC1(C)N=C(N)N=C(N)N1c1c(Cl)cccc1Cl [A9.105] | 59.8 µM
O=C1Nc2cc(C(=O)N3CCN(c4ccccc4)CC3)ccc2NC1CSCc1ccccc1F (stereo not shown) [A9.106] | 61.5 µM
Cc1nc(NC(C)C(=O)O)c2nc(C)oc2n1 (stereo not shown) [A9.108] | 65.8 µM
Cc1ccc(C(=O)N/C(=C\c2ccco2)C(=O)N2CCSCC2)cc1C [A9.109] | 68.9 µM
Cc1ccc(S(=O)(=O)N2CCC(C(=O)N/N=C/c3ccco3)CC2)cc1 [A9.110] | 69.3 µM
COc1ccc(/C=C2\c3ccccc3-c3ccc(C(=O)CCCCN4CCCCC4)cc32)cc1OC [A9.111] | 74.6 µM
CCc1c(C)nc2ccccc2c1SCC(=O)O [A9.112] | 77.4 µM

The remaining lines, values ahead:

IC50 | SMILES
9.8 µM | Cc1ccc(/C=N\NC(=O)c2cnccn2)o1 [A9.020]
10.6 µM | O=C(N/C(=C\c1ccco1)C(=O)N1CCCCC1)c1ccco1 [A9.022]
11 µM | Cc1ccc(C(=O)N/C(=C\c2ccco2)C(=O)N2CC3CC(C2)c2cccc(=O)n2C3)cc1 (stereo not shown) [A9.023]
11.8 µM | CN(C)CCCN1CCN(c2nc(N(C)CC(=O)O)c3ncn(Cc4ccc([N+](=O)[O-])cc4)c3n2)CC1 [A9.024]
11.7 µM | Cc1[nH]c2ccccc2c1C(c1cc(Cl)ccc1O)N1CCOCC1 (stereo not shown) [A9.025]
11.8 µM | Cc1ccc(C(=O)N/C(=C\c2ccco2)C(=O)N2CC3CC(C2)c2cccc(=O)n2C3)cc1C (stereo not shown) [A9.026]
13.1 µM | CC(C)COc1ccc(C(=O)N/C(=C\c2ccco2)C(=O)N2CCOCC2)cc1 [A9.027]
13.2 µM | O=C(O)c1cc2nc(-c3ccco3)cc(C(F)(F)Cl)n2n1 [A9.028]
13.5 µM | O=C(N/C(=C\c1ccco1)C(=O)N1CCOCC1)c1ccco1 [A9.029]
13.7 µM | O=C1C2=[N+]([O-])C3CCCCC3[N+]([O-])=C2c2ccccc21 (stereo not shown) [A9.030]
13.4 µM | N/C(=N/OS(=O)(=O)c1ccc(C(F)(F)F)cc1)C1CSCCS1 (stereo not shown) [A9.031]
14.1 µM | O=C(CCCCCN1C(=O)c2cccc3cccc(c23)C1=O)NO [A9.032]
14.3 µM | COc1nncc(-c2cnnc(SC)n2)n1 [A9.033]
14.3 µM | Clc1ccc(-n2cc3c(-c4ccco4)nnc(-c4nc5ccccc5s4)c3n2)cc1 [A9.034]
14.6 µM | O=c1[nH]c(/C=C/c2ccco2)nc2ccccc12 [A9.035]
15.2 µM | COC(=O)c1cc(-c2ccc(/C=C3\C(=O)N(CCCO)C(=O)C(C#N)=C3C)o2)ccc1Cl [A9.036]
16 µM | CC1=C(C#N)C(=O)N(CCCO)C(=O)/C1=C\c1ccc(-c2ccc(Br)cc2)o1 [A9.037]
17.1 µM | O=C(O)C1N=NC(c2ccc(F)cc2)=CN1O (stereo not shown) [A9.038]
18.1 µM | C=CCOC(=O)c1cc(-c2ccc(/C=C3/C(=O)N(CCCO)C(=O)C(C#N)=C3C)o2)ccc1Cl [A9.040]
18.2 µM | Cc1cc(=O)[nH]c(N/N=C/c2ccco2)n1 [A9.041]
18.2 µM | CC(=O)c1cccc(-c2ccc(/C=C3/C(=O)N(CCCO)C(=O)C(C#N)=C3C)o2)c1 [A9.042]
19 µM | O=C(N/C(=C\c1ccco1)C(=O)N1CCCC(CO)C1)c1ccccc1 (stereo not shown) [A9.043]
19.1 µM | O=C(Cc1ccc([N+](=O)[O-])cc1)N1CCOCC1 [A9.044]
19.2 µM | CO/N=C(\c1nonc1N)N1CCN(c2ccc([N+](=O)[O-])cc2Cl)CC1 [A9.045]
19.2 µM | CN1C/C(=C/c2ccco2)C(=O)/C(=C/c2ccco2)C1 [A9.046]

IC50 | SMILES
19.9 µM | CC1CCCCN1S(=O)(=O)c1ccc(NC(=O)/C=C/c2ccco2)cc1 (stereo not shown) [A9.047]
20.3 µM | Cc1cc(C)n(-c2nnc(N)nn2)n1 [A9.048]
20.8 µM | CCCN1C(=O)C(C#N)=C(C)/C(=C\c2ccc(-c3cccc(Cl)c3C)o2)C1=O [A9.049]
20.9 µM | COc1ccc(C[C@@H](N)C(=O)N[C@H]2[C@H](O)[C@H](n3cnc4c(N(C)C)ncnc43)O[C@@H]2CO)cc1 [A9.050]
21.1 µM | O=C(N/C(=C\c1ccco1)C(=O)N1CCC(O)CC1)c1ccccc1 [A9.051]
21.2 µM | O=C(O)c1ccc(-n2c(/C=C/c3ccco3)nc3ccccc3c2=O)cc1 [A9.052]
21.3 µM | CC1=C(C#N)C(O)=NC(=O)/C1=C/c1ccc(-c2ccc(Cl)c(C(=O)OC(C)C)c2)o1 [A9.053]
21.4 µM | CN(C)c1c(Cl)cc(/C(=N/O)N2CCOCC2)cc1Cl [A9.054]
21.6 µM | Cc1cccc(C)c1Nc1c(-c2ccccc2NC(=O)Nc2cccc(Cl)c2)nc2c(C(=O)NCC(C)C)cccn12 [A9.055]
21.9 µM | O=C(/C=C/c1ccco1)Nc1ccc(OCC(=O)N2CCOCC2)cc1 [A9.056]
22.3 µM | CCOC(=O)c1c(C)oc2c1c1c(c3ccccc32)OCN(C2CCS(=O)(=O)C2)C1 (stereo not shown) [A9.057]
22.4 µM | O=C(N/N=C/c1ccco1)c1ccc(=O)[nH]n1 [A9.058]
25 µM | Cn1nc(-c2cccs2)nc2c(=O)n(C)c(=O)nc1-2 [A9.059]
23 µM | CN(C)CCCN1CCN(c2nc(N(C)CC(=O)O)c3ncn(Cc4ccc(C(F)(F)F)cc4)c3n2)CC1 [A9.060]
23.1 µM | CCOC(=O)C1=C2SCC(=O)N2C(N)=C(C#N)C1 [A9.061]
23.3 µM | O=C1c2cccc3c(Br)c([N+](=O)[O-])cc(c23)C(=O)N1c1cccc([N+](=O)[O-])c1 [A9.062]
23.6 µM | O=C(Nc1ccc(O)cc1C(=O)O)c1cccc(N2C(=O)c3cccc4c([N+](=O)[O-])ccc(c34)C2=O)c1 [A9.063]
23.8 µM | CCCOC(=O)c1cc(-c2ccc(/C=C3\C(=O)N(CCCO)C(=O)C(C#N)=C3C)o2)ccc1Cl [A9.064]
22.6 µM | Cn1c(=O)[nH]c2nnc(-c3cccs3)nc2c1=O [A9.065]
25.5 µM | O=C(N/C(=C\c1ccco1)C(=O)N1CCOCC1)c1ccccc1Cl [A9.066]
26.7 µM | Cc1ccc(/C=N/NC(=O)c2nnn(-c3nonc3N)c2CN2CCOCC2)o1 [A9.067]
26.9 µM | O=C(NC(Sc1ccncn1)C(=O)c1ccccc1)c1ccccc1 (stereo not shown) [A9.068]
28 µM | Cc1ccc(Cn2c(SCCC(=O)O)nc3c2c(=O)n(C)c(=O)n3C)cc1 [A9.070]
28.1 µM | COC(=O)c1ccccc1-c1ccc(/C=C2\C(=O)N(C)C(=O)C(C#N)=C2C)o1 [A9.071]
